According to the supplement of paper PMC9663587:

How the values were obtained:
UACC812 = experiment: GRmax, 72 h; higher = less effect;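 also: breast cell lines in 384-well plates, nine doses across a 10^4 range, Dye Drop imaging of viable cells vs DMSO and time-zero plates, GR 0 means no net growth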
HCC1569 = experiment: GRmax, 72 h; higher = less effect;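 also: breast cell lines in 384-well plates, nine doses across a 10^4 range, Dye Drop imaging of viable cells vs DMSO and time-zero plates, GR 0 means no net growth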
184A1 = experiment: GRmax, 72 h; higher = less effect;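 also: breast cell lines in 384-well plates, nine doses across a 10^4 range, Dye Drop imaging of viable cells vs DMSO and time-zero plates, GR 0 means no net growth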
HCC1187 = experiment: GRmax, 72 h; higher = less effect;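 also: breast cell lines in 384-well plates, nine doses across a 10^4 range, Dye Drop imaging of viable cells vs DMSO and time-zero plates, GR 0 means no net growth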
HCC1806 = experiment: GRmax, 72 h; higher = less effect
CAL120 = experiment: GRmax, 72 h; higher = less effect
ZR7530 = experiment: GRmax, 72 h; higher = less effect
HCC1937 = experiment: GRmax, 72 h; higher = less effect
MCF10A (GM) = experiment: area over the GR curve, 72 h; higher = more effect;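 also: Dye Drop or Deep Dye Drop imaging of viable cells in 384-well plates (Hoechst nuclei, LIVE/DEAD dye), nine half-log doses, GR normalized to DMSO controls and time-zero plates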
PDX1206 = experiment: area over the GR curve, 72 h; higher = more effect;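 also: Dye Drop or Deep Dye Drop imaging of viable cells in 384-well plates (Hoechst nuclei, LIVE/DEAD dye), nine half-log doses, GR normalized to DMSO controls and time-zero plates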
HCC1428 = experiment: area over the GR curve, 72 h; higher = more effect;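 also: Dye Drop or Deep Dye Drop imaging of viable cells in 384-well plates (Hoechst nuclei, LIVE/DEAD dye), nine half-log doses, GR normalized to DMSO controls and time-zero plates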
HCC1500 = experiment: area over the GR curve, 72 h; higher = more effect;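 also: Dye Drop or Deep Dye Drop imaging of viable cells in 384-well plates (Hoechst nuclei, LIVE/DEAD dye), nine half-log doses, GR normalized to DMSO controls and time-zero plates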
MDAMB157 = experiment: area over the GR curve, 72 h; higher = more effect

Row | SMILES | GRmax, 72 h (UACC812) | GRmax, 72 h (HCC1569) | GRmax, 72 h (184A1) | GRmax, 72 h (HCC1187) | GRmax, 72 h (HCC1806) | GRmax, 72 h (CAL120) | GRmax, 72 h (ZR7530) | GRmax, 72 h (HCC1937) | area over the GR curve (MCF10A (GM)) | area over the GR curve (PDX1206) | area over the GR curve (HCC1428) | area over the GR curve (HCC1500) | area over the GR curve (MDAMB157)
1 | CNc1nc(-c2ccc3c(N)n[nH]c3c2)cc(N2C[C@@H](C(=O)NC3CCCCC3)CC[C@H]2C)n1 (max 10 µM) | 0.166 GR | 0.673 GR | 0.572 GR | 0.504 GR | 0.869 GR | 0.786 GR | 0.348 GR | 0.585 GR | 0.0279 GR | 0.327 GR | – | – | –
2 | CN(C)C/C=C/C(=O)Nc1ccc(C(=O)Nc2cccc(Nc3cc(-c4c[nH]c5ccccc45)ncn3)c2)cc1 [THZ-P1-2] (max 10 µM) | -0.371 GR | -0.359 GR | -0.344 GR | 0.283 GR | -0.467 GR | -0.278 GR | -0.964 GR | -0.777 GR | 0.0927 GR | -0.0028 GR | – | – | –
3 | NC1(C(=O)N[C@@H](CCO)c2ccc(Cl)cc2)CCN(c2nc[nH]c3nccc2-3)CC1 [AZD5363] (max 10 µM) | 0.485 GR | 0.0764 GR | 0.773 GR | 0.426 GR | 0.789 GR | 0.806 GR | 0.187 GR | 0.504 GR | 0.214 GR | 0.4 GR | – | – | –
4 | CN(C)C/C=C/C(=O)Nc1ccc(C(=O)N2CCC[C@@H](Nc3ncc(Cl)c(-c4c[nH]c5ccccc45)n3)C2)cc1 [THZ531] (max 1 µM) | 0.556 GR | -0.155 GR | -0.377 GR | -0.852 GR | -0.489 GR | -0.0211 GR | -0.732 GR | -0.282 GR | 0.134 GR | 0.407 GR | – | – | –
5 | CN(C)C(=O)c1cc2cnc(Nc3ccc(N4CCNCC4)cn3)nc2n1C1CCCC1 [LEE011/Ribociclib] (max 10 µM) | 0.0889 GR | 0.897 GR | 0.11 GR | 0.56 GR | 0.682 GR | 0.632 GR | 0.41 GR | 1.03 GR | 0.166 GR | 0.166 GR | – | – | –
6 | COc1ccc2c(c1)[C@]1(C[C@H]1c1ccc3c(/C=C/c4ccc(CN5C[C@@H](C)O[C@@H](C)C5)cc4)n[nH]c3c1)C(=O)N2 | -0.135 GR | -0.0697 GR | 0.0075 GR | -0.485 GR | -0.106 GR | 0.175 GR | 0.174 GR | -0.149 GR | 0.507 GR | 0.504 GR | – | – | –
7 | CC(C)Nc1cc(-c2c[nH]c(C(=O)N[C@H](CO)c3cccc(Cl)c3)c2)c(Cl)cn1 [BVD523] (max 10 µM) | 0.176 GR | 0.568 GR | 0.046 GR | 0.649 GR | 0.76 GR | 0.482 GR | 0.562 GR | 0.534 GR | 0.266 GR | 0.0779 GR | – | – | –
8 | CCC(=O)Nc1ccc(C(=O)Nc2ccc(Nc3ncc4c(n3)N(C)c3ccc(C)cc3C(=O)N4C)cc2)cc1 [FMF-03-145-1] | -0.198 GR | -0.125 GR | -0.0063 GR | -0.506 GR | -0.09 GR | 0.191 GR | -0.0468 GR | -0.0558 GR | 0.376 GR | 0.946 GR | – | – | –
9 | C=CCn1c(=O)c2cnc(Nc3ccc(N4CCN(C)CC4)cc3)nc2n1-c1cccc(C(C)(C)O)n1 [AZD1775] (max 10 µM) | -0.598 GR | -0.167 GR | 0.0471 GR | -0.729 GR | -0.55 GR | -0.238 GR | -0.501 GR | -0.0795 GR | 0.136 GR | 0.455 GR | – | – | –
10 | CCCCOc1c(C(=O)c2c(F)cc(C)cc2F)c[nH]c2nncc1-2 (max 10 µM) | -0.394 GR | 0.0899 GR | -0.0413 GR | 0.437 GR | 0.0151 GR | 0.369 GR | 0.212 GR | -0.0492 GR | 0.423 GR | 0.691 GR | – | – | –
11 | C[C@@H]1COCCN1c1cc(C2([S@](C)(=N)=O)CC2)nc(-c2cc[nH]c3nccc2-3)n1 [AZD6738] (max 10 µM) | 0.305 GR | -0.0623 GR | 0.518 GR | -0.332 GR | -0.326 GR | 0.783 GR | 0.61 GR | 0.298 GR | 0.073 GR | 0.0536 GR | – | – | –
12 | CNCc1ccc(-c2[nH]c3cc(F)cc4c3c2CCNC4=O)cc1 [Rucaparib] (max 10 µM) | 0.661 GR | 0.75 GR | 0.748 GR | 0.802 GR | 0.68 GR | 0.613 GR | 0.674 GR | 0.815 GR | 0.0455 GR | 0.114 GR | – | – | –
13 | C=CC(=O)Nc1ccc(C(=O)Nc2[nH]nc3c2CN(C(=O)N[C@H](CN(C)C)c2ccccc2)C3(C)C)cc1 [YKL-5-124] (max 10 µM) | -0.403 GR | -0.164 GR | -0.0615 GR | -0.635 GR | -0.469 GR | 0.182 GR | -0.625 GR | -0.205 GR | 0.982 GR | 0.57 GR | – | – | –
14 | CC(=O)c1c(C)c2cnc(Nc3ccc(N4CCN(CCOCCOCCOCCNC(=O)COc5cccc6c5C(=O)N(C5CCC(=O)NC5=O)C6=O)CC4)cn3)nc2n(C2CCCC2)c1=O (stereo unspecified) [BSJ-03-123] (max 10 µM) | -0.312 GR | -0.03 GR | -0.137 GR | -0.518 GR | -0.0588 GR | 0.239 GR | -0.258 GR | 0.493 GR | 0.25 GR | 0.163 GR | – | – | –
15 | CN(C)C/C=C/C(=O)Nc1ccc(O[C@@H]2CCC[C@@H](Nc3ncc(Cl)c(-c4c[nH]c5ccccc45)n3)C2)cc1 [BSJ-01-175] (max 10 µM) | -0.92 GR | -0.762 GR | -0.452 GR | -0.827 GR | -0.592 GR | -0.272 GR | -0.943 GR | -0.603 GR | 0.326 GR | 0.9 GR | – | – | –
16 | CN1CC[C@H](c2c(O)cc(O)c3c(=O)cc(-c4ccccc4Cl)oc23)[C@H](O)C1 [Flavopiridol] (max 1 µM) | -0.813 GR | -0.177 GR | -0.329 GR | -0.885 GR | -0.568 GR | -0.0459 GR | -0.662 GR | -0.215 GR | 0.316 GR | 0.458 GR | – | – | –
17 | COc1cc(N2CCN(C)CC2)ccc1Nc1ncc2c(n1)N(C)c1ccccc1C(=O)N2CC(F)(F)F [FMF-03-146-1] | 0.918 GR | 1.03 GR | 1.04 GR | 0.955 GR | 0.942 GR | 0.968 GR | 0.937 GR | 0.846 GR | 0.001 GR | -0.0165 GR | – | – | –
18 | CO[C@@H](C)Cn1c(=O)n(C)c2cnc3ccc(-c4cncc(C(C)(C)O)c4)cc3c21 (max 10 µM) | -0.663 GR | -0.0783 GR | 0.0943 GR | -0.718 GR | -0.0061 GR | 0.0419 GR | -0.36 GR | 0.0369 GR | 0.67 GR | 0.804 GR | – | – | –
19 | CN(C)C/C=C/C(=O)Nc1ccc(C(=O)Nc2cccc(Nc3ncc(Cl)c(-c4c[nH]c5ccccc45)n3)c2)cc1 [THZ1] (max 1 µM) | -0.348 GR | -0.325 GR | -0.232 GR | -0.852 GR | -0.658 GR | -0.128 GR | -0.638 GR | -0.386 GR | 0.374 GR | 0.506 GR | – | – | –
20 | CN1CCN(C(=O)c2ccc3cc(CCNc4ncnc5ccc(C#N)cc45)ccc3c2)CC1 [senexin b] (max 10 µM) | 0.248 GR | 0.514 GR | 0.809 GR | 1.62 GR | 0.817 GR | 0.856 GR | 0.0824 GR | 0.394 GR | 0.0206 GR | 0.37 GR | – | – | –
21 | CC1(N)CCN(c2cnc(-c3cccc(Cl)c3Cl)c(N)n2)CC1 [SHP099] (max 10 µM) | 0.651 GR | 0.92 GR | 0.279 GR | 0.77 GR | 0.988 GR | 0.869 GR | 0.715 GR | 0.797 GR | 0.0203 GR | 0.0699 GR | – | – | –
22 | CNC(=O)c1cccc(-c2ccc3c(N4CCOC[C@@H]4C)nc(N4CCOC[C@@H]4C)nc3n2)c1 [AZD2014] (max 10 µM) | -0.585 GR | 0.0746 GR | 0.0847 GR | 0.227 GR | 0.409 GR | 0.206 GR | -0.24 GR | 0.366 GR | 0.533 GR | 0.697 GR | – | – | –
23 | O=C1NC(=NCc2cccs2)SC1=Cc1ccc2ncccc2c1 [R0-3306] (max 10 µM) | -0.171 GR | -0.166 GR | -0.142 GR | -0.648 GR | -0.112 GR | 0.15 GR | 0.065 GR | -0.117 GR | 0.0788 GR | 0.197 GR | – | – | –
24 | COc1cccc(OCCCN)c1-c1cc(Nc2cnc(C#N)cn2)n[nH]1 | 0.528 GR | -0.0272 GR | 0.529 GR | -0.498 GR | -0.476 GR | 0.317 GR | 0.561 GR | 0.0059 GR | 0.245 GR | 0.427 GR | – | – | –
25 | Cc1nn(C)c(COc2ccc(N3CCN(S(=O)(=O)N(C)C)CC3)cc2)c1-c1cccc2c(CCCOc3cccc4ccccc34)c(C(=O)O)n(CCN3CCOCC3)c12 (max 10 µM) | 0.991 GR | 0.928 GR | -0.164 GR | 0.863 GR | 0.905 GR | 0.943 GR | 0.576 GR | 0.724 GR | – | – | -0.0325 GR | -0.063 GR | 0.0057 GR
